Source: US20100120871A1, “HAIR CARE COMPOSITIONS, METHODS, AND ARTICLES OF COMMERCE THAT CAN INCREASE THE APPEARANCE OF THICKER AND FULLER HAIR” (priority 2008, published 2010)

Tested on: primary human dermal papilla cells
Experiment: Survival of metabolically stressed primary human dermal papilla cells (ATP, Cell Titer Glo)
Type: cell-based
Set-up: unit not given here
Conditions: DP cells metabolically stressed 48 hours in reduced media, ATP by Cell Titer Glo, vehicle = 0
Procedure: Primary human dermal papilla cells were metabolically stressed for 48 hours in reduced standard tissue culture media. During this period of stress the cells were treated with the mixtures below dosed from a DMSO vehicle. After 48 hours the metabolic activity of the cells was measured by the amount of ATP using the Cell Titer Glo™ kit (Promega).
The dermal papilla, in normal human hair, is the control center for hair diameter. Increasing survival of dermal papilla cells in situ leads to increased hair diameter. Accordingly, an increase in survival of dermal papilla cells correlates with an increase in hair diameter.

`CC(C)(CO)[C@@H](O)C(=O)NCCCO` [Panthenol, panthenol] gave a Survival (Table 1A) of −0.17, a Survival (Table 1B) of −0.17 and a Survival (Table 2A) of −0.01. It also gave a Survival (Table 2B) of −0.13.
`O=C(O)Cc1c[nH]c2ccccc12` [IAA, indole-3-acetic acid] gave a Survival (Table 1A) of −0.17 and a Survival (Table 1B) of −0.18.
For `NC(=O)c1cccnc1` [Niacinamide, niacinamide], the Survival (Table 1A) was −0.02, the Survival (Table 1B) was −0.02 and the Survival (Table 2A) was −0.16. For the same compound, the Survival (Table 2B) was 0.1.
`OCc1c[nH]c2ccccc12` [Example I3C, Indole-3-Carbinol] showed a Survival (Table 2A) of −0.16 and a Survival (Table 2B) of 0.08.
For `OCCc1c[nH]c2ccccc12` [HI, Tryptophol], the Survival (Table 3) was 1.72.
